In article PMC5076878 (Bioorganic & medicinal chemistry letters, 2016):
Where “and” joins values, the source holds several entries; their conditions need not be identical. Identical values can stand only once.

These compounds were tested against T1, human LAT1 (Homo sapiens, UniProt Q01650) (assay: cis-inhibition assay: inhibition of [3H]-gabapentin uptake into HEK-hLAT1 cells). Conditions: read-out: % Inhibition of [3H]-gabapentin uptake.
T1 sequence (Q01650 whole entry): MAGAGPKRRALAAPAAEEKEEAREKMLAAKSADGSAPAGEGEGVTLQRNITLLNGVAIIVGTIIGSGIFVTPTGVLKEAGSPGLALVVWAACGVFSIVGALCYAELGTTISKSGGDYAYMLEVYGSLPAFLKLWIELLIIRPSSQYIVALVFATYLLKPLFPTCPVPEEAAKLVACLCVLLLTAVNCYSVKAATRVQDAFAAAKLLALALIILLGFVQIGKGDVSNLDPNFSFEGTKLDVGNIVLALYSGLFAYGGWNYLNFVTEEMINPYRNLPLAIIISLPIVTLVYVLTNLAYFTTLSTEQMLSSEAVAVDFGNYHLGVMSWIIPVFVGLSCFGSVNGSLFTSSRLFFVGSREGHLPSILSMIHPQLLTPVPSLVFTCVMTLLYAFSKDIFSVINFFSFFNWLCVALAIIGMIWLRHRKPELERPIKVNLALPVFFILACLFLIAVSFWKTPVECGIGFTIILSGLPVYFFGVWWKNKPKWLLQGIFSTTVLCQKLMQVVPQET
T1 sequence (P08195 102-630 partner): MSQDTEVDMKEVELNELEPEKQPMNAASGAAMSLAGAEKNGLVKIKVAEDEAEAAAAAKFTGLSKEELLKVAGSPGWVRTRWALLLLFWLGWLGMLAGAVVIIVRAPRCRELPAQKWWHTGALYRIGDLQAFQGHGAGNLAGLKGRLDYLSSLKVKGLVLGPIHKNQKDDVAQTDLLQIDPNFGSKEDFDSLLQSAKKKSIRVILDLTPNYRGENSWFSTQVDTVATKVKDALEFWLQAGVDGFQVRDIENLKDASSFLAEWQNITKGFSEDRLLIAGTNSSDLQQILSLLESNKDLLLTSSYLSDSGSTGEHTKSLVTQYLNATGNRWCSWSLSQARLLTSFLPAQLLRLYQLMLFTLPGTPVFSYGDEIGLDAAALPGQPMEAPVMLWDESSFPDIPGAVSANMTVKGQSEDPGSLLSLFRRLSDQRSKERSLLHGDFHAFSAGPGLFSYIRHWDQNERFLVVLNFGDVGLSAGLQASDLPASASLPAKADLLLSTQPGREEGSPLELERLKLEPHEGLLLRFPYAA
Type: cell-based
In the case of `N[C@@H](Cc1ccccc1)C(=O)O` [Compound 1a, phenylalanine, reference compound], the inhibition at 200 µM is reported as 85 ± 0.6%. `N=C(N)NCCC[C@H](N)C(=O)O` [Compound 1i, reference compound] was tested, and the inhibition at 200 µM was 49 ± 2%. With `N[C@@H](Cc1ccc(O)cc1)C(=O)O` [Compound 1b, tyrosine] the inhibition at 200 µM was 68 ± 0.5%. `N[C@@H](Cc1c[nH]c2ccccc12)C(=O)O` [Compound 1d, tryptophan, reference compound] gave an inhibition at 200 µM of 79 ± 0.6%.

Each compound was assayed against T1, human LAT1 (assay: not given). Conditions: compound at 200 μM; pre-loaded HEK-hLAT1 cells; at least triplicate.
Type: cell-based
With `N[C@@H](Cc1c[nH]c2ccccc12)C(=O)NO` [Compound 12d] the “Efflux Rate of [3H]-gabapentin” value was 1.0 ± 0.1 fmol/min. `CC[C@H](C)[C@H](N)C(=O)O` [Compound 1f, isoleucine, reference compound] was tested, and the “Efflux Rate of [3H]-gabapentin” value was 2.5 ± 0.1 fmol/min. In the case of `CSCC[C@H](N)C(=O)O` [Compound 1g, methionine, reference compound], the “Efflux Rate of [3H]-gabapentin” value is reported as 2.4 ± 0.1 fmol/min. In the case of `CONC(=O)[C@@H](N)CC(C)C.Cl` [Compound 9e], the “Efflux Rate of [3H]-gabapentin” value is reported as 2.1 fmol/min and 2.1 ± 0.2 fmol/min. For `CSCC[C@H](N)C(=O)NO.Cl` [Compound 12g], the “Efflux Rate of [3H]-gabapentin” value was 1.1 ± 0.01 fmol/min. For `N[C@@H](Cc1ccccc1)C(=O)O` [Compound 1a, phenylalanine, reference compound], the “Efflux Rate of [3H]-gabapentin” value was 3.6 fmol/min and 3.6 ± 0.7 fmol/min. `N=C(N)NCCC[C@H](N)C(=O)O` [Compound 1i, reference compound] was tested, and the “Efflux Rate of [3H]-gabapentin” value was 0.75 ± 0.1 fmol/min. `N[C@@H](Cc1ccccc1)c1nnn[nH]1` [Compound 11] was tested, and the “Efflux Rate of [3H]-gabapentin” value was 0.61 ± 0.01 fmol/min. `CS(=O)(=O)NC(=O)[C@@H](N)Cc1ccccc1` [Compound 10a] was tested, and the “Efflux Rate of [3H]-gabapentin” value was 0.61 ± 0.06 fmol/min. With `N[C@@H](Cc1ccc(O)cc1)C(=O)NO` [Compound 12b] the “Efflux Rate of [3H]-gabapentin” value was 1.0 ± 0.1 fmol/min. For `NCC(=O)NO` [Compound 12h], the “Efflux Rate of [3H]-gabapentin” value was 0.70 ± 0.1 fmol/min. For `CC(C)C[C@H](N)C(N)=O.Cl` [Compound 13e, leucinamide], the “Efflux Rate of [3H]-gabapentin” value was 0.69 fmol/min and 0.69 ± 0.01 fmol/min. For `N[C@@H](Cc1c[nH]c2ccccc12)C(=O)O` [Compound 1d, tryptophan, reference compound], the “Efflux Rate of [3H]-gabapentin” value was 1.6 ± 0.3 fmol/min. For `CC[C@H](C)[C@H](N)C(=O)NO.Cl` [Compound 12f], the “Efflux Rate of [3H]-gabapentin” value was 1.5 fmol/min and 1.5 ± 0.2 fmol/min. With `CC(C)C[C@H](N)C(=O)NO.Cl` [Compound 12e] the “Efflux Rate of [3H]-gabapentin” value was 1.5 fmol/min and 1.5 ± 0.1 fmol/min. For `CS(=O)(=O)NC(=O)[C@@H](N)Cc1ccc(O)cc1` [Compound 10b], the “Efflux Rate of [3H]-gabapentin” value was 0.63 ± 0.03 fmol/min.
